The assay relates to beta-TC6 cells. Description: Insulin HTRF assay, relative activity Ar normalized to sunitinib. The note with it: Mus musculus, normalized to positive control sunitinib (5 µM = 100%), Table 10. In kind it is cell-based. The source says:
For further screening of compounds derived from compounds described above for their ability to regulate insulin release an insulin HTRF® (Homogeneous Time-Resolved Fluorescence; Cisbio International, France) was used. This assay is based on two antibodies against insulin binding to different epitopes of insulin. One of these antibodies is coupled to Europium (Ab-Eu-Cryptate) and the other one to the fluorophore XL665 (Ab-XL665). Is insulin secreted into the supernatant of cell culture both antibodies can bind to insulin and come therefore into close proximity which allows upon excitation that energy transfer between (FRET) the long-life fluorescent donor Europium (cryptate) and the acceptors XL665. FRET increases proportionally with insulin concentration.
The automated assay protocol is as follows: • On day 1 15k beta-TC6 cells per well were seeded for 24 or 48 h in 50 µl complete medium. On day 2 or respective on day 3 the medium is removed and cells are washed with 60 µl 1xPBS and 20 µl induction buffer is added using BioTek washer. Subsequently, 10 µl Sunitininb (5 µM f.c.) or the test compound in induction buffer; 0.5% f.c. DMSO (CyBi-well) is transferred to the cells. The cells are then incubated at 37°C for 2, 3, 4h.
The HTRF assay is carried out using Greiner 384-well 784075 assay plates. First 10 µl supernatant is transferred from the cell plates in HTRF plates (CyBi-well). 10 µl of 0, 1, 2, and 4 ng/ml Insulin standard controls in assay medium is used as a control. To each well 10 µl of combined 1:25 Ab-XL665 (Acc) and 1:20 Ab-Eu-Cryptate (WellMate) are added and incubated for 120 min at RT in the dark. Finally HTRF is measured on ViewLux ultra high throughput microplate imager (PerkinElmer).
The evaluation software DataFactoty derives relative activities Ar according to the following equation: Ar = (V-R(0%control))/(R(100%control) -R(0%control)) × 100 [formula] […]
The activity of the compounds was classified according to their Ar (relative activity) into the following ranges: Ar ≥ 100% + + + +; 50% ≤ Ar < 100% + + +; 20% ≤ Ar < 50% + +; 10% < Ar < 20% + [formula] Table 10. Ar (relative activity) values of inventive compounds
Background: TR-FRET usually uses a lanthanide donor and a delayed reading to cut background.
A word on the Emax: it is the maximal effect, on the per cent scale that the assay sets. As to `Cn1ccc2cc(-c3cnc4cnc(-c5cccc(C(=O)NCCO)c5)cn34)ccc21` [compound 399, N-(2-hydroxyethyl)-3-[3-(1-methylindol-5-yl)imidazo[1,2-a]pyrazin-6-yl]benzamide], the Emax is 20 to 50%.
Consider `Cn1cncc1C#Cc1ccc2nnc(-c3ccc4c(c3)OCO4)n2c1` [compound 172, 3-(1,3-benzodioxol-5-yl)-6-[2-(3-methylimidazol-4-yl)ethynyl]-[1,2,4]triazolo[4,3-a]pyridine], for which the maximal effect (Emax) lay within 20 to 50%.
Consider `CNC(=O)c1ccc(-c2ccc3nnc(-c4ccc(OCCCN(C)C)cc4)n3c2)cc1` [compound 240, 4-[3-[4-[3-(dimethylamino)propoxy]phenyl]-[1,2,4]triazolo[4,3-a]pyridin-6-yl]-N-methyl-benzamide], for which the Emax lay within 20 to 50%.
As to `COc1cc(OC)cc(-c2cn3c(-c4ccsc4)cnc3cn2)c1` [compound 323, 6-(3,5-dimethoxyphenyl)-3-(3-thienyl)imidazo[1,2-a]pyrazine], the Emax was 20 to 50%.
Turning to `Fc1ccc(-c2cnc3cnc(-c4ccco4)cn23)cc1Cl` [compound 351, 3-(3-chloro-4-fluoro-phenyl)-6-(2-furyl)imidazo[1,2-a]pyrazine], the maximum response (Emax) was 20 to 50%.
In turn, `Oc1cccc(-c2ccc3ncc(-c4cccc(C(F)(F)F)c4)n3n2)c1` [compound 135, 3-[3-[3-(trifluoromethyl)phenyl]imidazo[1,2-b]pyridazin-6-yl]phenol] returned an Emax of 20 to 50%.
For the compound `COc1cccc(-c2cn3c(-c4cccc(O)c4)cnc3cn2)c1F` [compound 372, 3-[6-(2-fluoro-3-methoxy-phenyl)imidazo[1,2-a]pyrazin-3-yl]phenol], the Emax was in the range of 20 to 50%.
The result for `Clc1ccccc1-c1ccc2nnc(-c3cccnc3)n2c1` [compound 184, 6-(2-chlorophenyl)-3-(3-pyridyl)-[1,2,4]triazolo[4,3-a]pyridine] reads 50 to 100%; that for `COc1ccc(-c2ccc3nnc(-c4ccc(O)c(OC)c4)n3c2)cn1` [compound 216, 2-methoxy-4-[6-(6-methoxy-3-pyridyl)-[1,2,4]triazolo[4,3-a]pyridin-3-yl]phenol], 50 to 100%.
Next, `FC(F)(F)Oc1ccc(-c2cn3c(-c4cccs4)cnc3cn2)cc1` [compound 418, 3-(2-thienyl)-6-[4-(trifluoromethoxy)phenyl]imidazo[1,2-a]pyrazine]: 20 to 50%; `CN1CCN(C(=O)c2cccc(-c3ccc4nnc(-c5ccc6nccnc6c5)n4c3)c2)CC1` [compound 243, (4-methylpiperazin-1-yl)-[3-(3-quinoxalin-6-yl-[1,2,4]triazolo[4,3-a]pyridin-6-yl)phenyl]methanone]: 20 to 50%; `CN(C)CCNC(=O)c1ccc(-c2cn3c(-c4ccc(N(C)C)cc4)cnc3cn2)cc1` [compound 289, N-(2-dimethylaminoethyl)-4-[3-(4-dimethylaminophenyl)imidazo[1,2-a]pyrazin-6-yl]benzamide]: 50 to 100%.
`CC(=O)c1cccc(-c2cn3c(NC(=O)CC4CC4)cnc3cn2)c1` [compound 274, N-[6-(3-acetylphenyl)imidazo[1,2-a]pyrazin-3-yl]-2-cyclopropyl-acetamide] gave an Emax of 20 to 50%.
The result for `O=C(NC1CCCC1)c1ccc(-c2cn3c(-c4ccc(CO)cc4)cnc3cn2)cc1` [compound 375, N-cyclopentyl-4-[3-[4-(hydroxymethyl)phenyl]imidazo[1,2-a]pyrazin-6-yl]benzamide] reads 20 to 50%; that for `FC(F)(F)c1cccc(C#Cc2ccc3nnc(-c4ccncc4)n3c2)c1` [compound 180, 3-(4-pyridyl)-6-[2-[3-(trifluoromethyl)phenyl]ethynyl]-[1,2,4]triazolo[4,3-a]pyridine], 10 to 20%.
For the compound `CN(C)c1cccc(-c2cnc3cnc(-c4ccc(CO)cc4)cn23)c1` [compound 344, [4-[3-[3-(dimethylamino)phenyl]imidazo[1,2-a]pyrazin-6-yl]phenyl]methanol], the Emax was 20 to 50%.
`CC(C)N1CCN(c2ccc(-c3cn4c(-c5ccc(C(=O)NC6CC6)cc5)cnc4cn3)cc2)CC1` [compound 435, N-cyclopropyl-4-[6-[4-(4-isopropylpiperazin-1-yl)phenyl]imidazo[1,2-a]pyrazin-3-yl]benzamide] had a maximal effect (Emax) of 20 to 50%.
Next, `FC(F)(F)Oc1cccc(-c2nnc3ccc(C#Cc4ccccc4)cn23)c1` [compound 196, 6-(2-phenylethynyl)-3-[3-(trifluoromethoxy)phenyl]-[1,2,4]triazolo[4,3-a]pyridine]: 20 to 50%.
The result for `COc1ccc(-c2ccc3ncc(-c4cccc(Cl)c4)n3n2)cc1OC` [compound 124, 3-(3-chlorophenyl)-6-(3,4-dimethoxyphenyl)imidazo[1,2-b]pyridazine] reads 20 to 50%.
`OCc1ccc(-c2ccc3nnc(-c4ccncc4)n3c2)cc1` [compound 179, [4-[3-(4-pyridyl)-[1,2,4]triazolo[4,3-a]pyridin-6-yl]phenyl]methanol] had an Emax of 20 to 50%.
Compound `c1ccc(-c2cn3c(-c4ccc5c(c4)OCO5)cnc3cn2)cc1` [compound 300, 3-(1,3-benzodioxol-5-yl)-6-phenyl-imidazo[1,2-a]pyrazine] displayed an Emax of 50 to 100%.
`COc1cc(-c2cnc3ccc(NCc4cccc(Cl)c4)nn23)ccc1O` [compound 16, 4-[6-[(3-chlorophenyl)methylamino]imidazo[1,2-b]pyridazin-3-yl]-2-methoxy-phenol] gave an Emax of 20 to 50%.
Turning to `COc1ccc(-c2cnc3ccc(NCc4cccs4)nn23)c(OC)c1` [compound 6, 3-(2,4-dimethoxyphenyl)-N-(2-thienylmethyl)imidazo[1,2-b]pyridazin-6-amine], the Emax lay within 20 to 50%.
As to `COc1cncc(-c2cnc3ccc(Cc4ccc(F)cc4)nn23)c1` [compound 122, 6-[(4-fluorophenyl)methyl]-3-(5-methoxy-3-pyridyl)imidazo[1,2-b]pyridazine], the Emax lay in the range of 20 to 50%.
Compound `Nc1cccc(-c2ccc3nnc(-c4cccc(Cl)c4)n3c2)c1` [compound 197, 3-[3-(3-chlorophenyl)-[1,2,4]triazolo[4,3-a]pyridin-6-yl]an iline] displayed an Emax of 50 to 100%.
Compound `O=C(NCCO)c1ccc(-c2cn3c(-c4ccsc4)cnc3cn2)cc1` [compound 321, N-(2-hydroxyethyl)-4-[3-(3-thienyl)imidazo[1,2-a]pyrazin-6-yl]benzamide] registered an Emax of 10 to 20%.
As to `Fc1ccc(-c2cn3c(-c4ccsc4)cnc3cn2)cc1Cl` [compound 320, 6-(3-chloro-4-fluoro-phenyl)-3-(3-thienyl)imidazo[1,2-a]pyrazine], the Emax was in the range of 20 to 50%.
For `CC(C)N1CCN(c2ccc(-c3cn4c(-c5ccc(O)cc5)cnc4cn3)cc2)CC1` [compound 325, 4-[6-[4-(4-isopropylpiperazin-1-yl)phenyl]imidazo[1,2-a]pyrazin-3-yl]phenol], the Emax lay in the range of 20 to 50%.
Compound `CN(C)c1ccc(-c2cnc3cnc(-c4ccc(O)cc4)cn23)cc1` [compound 284, 4-[3-(4-dimethylaminophenyl)imidazo[1,2-a]pyrazin-6-yl]phenol] returned an Emax of 50 to 100%.
Compound `Cc1cc(-c2cnc3cccnn23)cc(C)c1O` [compound 77, 4-imidazo[1,2-b]pyridazin-3-yl-2,6-dimethyl-phenol] showed a maximal effect (Emax) of 10 to 20%.
For `COc1ccc(CNc2ccc3ncc(-c4ccc(OC)cc4OC)n3n2)cc1` [compound 39, 3-(2,4-dimethoxyphenyl)-N-[(4-methoxyphenyl)methyl]imidazo[1,2-b]pyridazin-6-amine], the Emax fell in the range of 10 to 20%.
Take `COc1cc(-c2ccc3ncc(-c4cccs4)n3n2)ccc1O` [compound 157, 2-methoxy-4-[3-(2-thienyl)imidazo[1,2-b]pyridazin-6-yl]phenol]: the Emax was in the range of 20 to 50%.
`CN(C)c1ccc(-c2ccc3ncc(-c4ccc(CO)cc4)n3n2)cc1` [compound 129, [4-[6-(4-dimethylaminophenyl)imidazo[1,2-b]pyridazin-3-yl]phenyl]methanol]: the Emax was in the range of 50 to 100%.
The result for `Cc1ccc(CNc2ccc3ncc(-c4ccc(C(=O)NCCN(C)C)cc4)n3n2)c(C)c1` [compound 54, N-(2-dimethylaminoethyl)-4-[6-[(2,4-dimethylphenyl)methylamino]imidazo[1,2-b]pyridazin-3-yl]benzamide] reads 20 to 50%; that for `COc1ccc(-c2cnc3ccc(N[C@H](CO)C(C)C)nn23)c(OC)c1` [compound 46, (2S)-2-[[3-(2,4-dimethoxyphenyl)imidazo[1,2-b]pyridazin-6-yl]amino]-3-methyl-butan-1-ol], 20 to 50%; that for `c1cc(-c2ccc3nnc(-c4ccc5c(c4)OCO5)n3c2)co1` [compound 171, 3-(1,3-benzodioxol-5-yl)-6-(3-furyl)-[1,2,4]triazolo[4,3-a]pyridine], 50 to 100%.

These data come from patent EP2818471A1, “Nitrogen bicyclic compounds as inhibitors for Scyl1 and Grk5” (Max-Planck-Gesellschaft zur Förderung der Wissenschaften …, priority 2013, dated 2014).
